What was measured:
[1] = cited from earlier work
[2] = Local (subcutaneous) pharmacokinetic study by dermal microdialysis after dermal administration of Huoxuezhitong rubber patch; type: in vivo; details: Sprague-Dawley, rat, subcutaneous (dermal) microdialysate, topical, male SD rats, mean ± SD, n = 6; for Cmax: maximum subcutaneous concentration, transdermal Huoxuezhitong rubber patch (3.46 cm2), removed after 720 min, corrected by RR; for AUC(0-t): subcutaneous concentration-time curve, read-out: AUC0-720 (converted); for AUC(0-t) / Tmax / MRT last / MRT inf / half-life: transdermal Huoxuezhitong rubber patch; for Tmax: subcutaneous tissue; for MRT last / MRT inf / half-life: subcutaneous; for MRT last: read-out: MRT0-720 (converted); for MRT inf: read-out: MRT0-∞ (converted); for half-life: terminal elimination half-life
Method: Before surgery, a rat with the hair on the abdomen shaved off was anesthetized with Urethane (1.5g/ kg, intraperitoneal injection). Its shell temperature was maintained at about 32.5°C during the experiment with the help of an infrared lamp. The linear microdialysis probe was inserted through a 23-gage intravenous needle. Subsequently, the needle was taken out, leaving the dialysis membranes horizontal under the hairless skin.
Implantation and pretreatment of the probe are the same as that described in Section 2.3. Then a round rubber patch (3.46 cm^2) was pasted on the hairless abdomen of the rat, respectively. After 720 min, the paste was scripted away. The skin was wiped softly and carefully to remove the residual drug. Simultaneously, another three samples was collected. If the rats suddenly died, the collection had to be terminated. All samples were immediately stored at 4°C until injected into the LC/MS/MS system for analysis. The sample concentration was corrected by RR.
The pharmacokinetics analysis was conducted by a noncompartmental approach using the Kinetica 5.1. The pharmacokinetics parameters, such as the maximum subcutaneous concentration (Cmax), time of reaching Cmax (Tmax), the area subcutaneous concentration-time curve (AUC0-t), the mean residence time (MRT), and the terminal elimination half-life (t1/2), were calculated on each individual analyte.

SMILES: C=CCc1ccc(O)c(OC)c1 [eugenol]
- Water solubility [1]: insoluble
- Cmax [2]: 18.9 ± 7.11 ng/mL
- AUC(0-t) [2]: 119 ng·h/mL
- Tmax [2]: 4 h
- MRT last [2]: 6.2 h
- MRT inf [2]: 7.77 h
- half-life [2]: 3.81 ± 2.7 h

SMILES: O=C(/C=C/C=C/c1ccc2c(c1)OCO2)N1CCCCC1 [piperine]
- Water solubility [1]: insoluble
- Cmax [2]: 1.8 ± 1.22 ng/mL
- AUC(0-t) [2]: 14.7 ng·h/mL
- Tmax [2]: 8.13 h
- MRT last [2]: 9.17 h
- MRT inf [2]: 11.5 h
- half-life [2]: 5.62 ± 0.741 h

SMILES: COc1ccc(C(C)=O)c(O)c1 [paeonol]
- Water solubility [1]: 349.8 µg/mL
- Cmax [2]: 12.6 ± 3.29 ng/mL
- AUC(0-t) [2]: 83.7 ng·h/mL
- Tmax [2]: 3.11 h
- MRT last [2]: 6.06 h
- MRT inf [2]: 9.5 h
- half-life [2]: 5.62 ± 3.8 h

Reference: article PMC6354162, “Development of a MD-LC-MS/MS Method to Analyze 3 Bioactive Compounds in Huoxuezhitong Rubber Patch and Application to a Pharmacokinetic Study in Rats” (Evidence-based Complementary and Alternative Medicine : eCAM, 2019)
